Results published in ChEMBL document CHEMBL1201862, “PubChem BioAssay data set” (2004).
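Method: 48-hour compound exposure of cells in 96-well plates, five concentrations, linear interpolation of endpoints. GI50 marks 50% less growth.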 Activity calls are given as the source filed them. Rule as the data show it: active = GI50 up to about 1.1 µM and inactive = higher.

Tests used:
Test in all cases: NCI anticancer screen, dose series, 48 h
MCF7 = system: MCF7
A549 = system: A549
SK-OV-3 = system: SK-OV-3
HOP-92 = system: HOP-92
NCI-H460 = system: NCI-H460
M14 = system: M14
Hs-578T = system: Hs-578T
EKVX = system: EKVX
CCRF-CEM = system: CCRF-CEM
NCI-H226 = system: NCI-H226
NCI-H522 = system: NCI-H522
MDA-N = system: MDA-N
PC-3 = system: PC-3
ACHN = system: ACHN
HL-60 = system: HL-60
MDA-MB-231 = system: MDA-MB-231
UACC-62 = system: UACC-62
SNB-19 = system: SNB-19
HOP-62 = system: HOP-62
OVCAR-4 = system: OVCAR-4

| SMILES | GI50 (MCF7) | GI50 (A549) | GI50 (SK-OV-3) | GI50 (HOP-92) | GI50 (NCI-H460) | GI50 (M14) | GI50 (Hs-578T) | GI50 (EKVX) | GI50 (CCRF-CEM) | GI50 (NCI-H226) | GI50 (NCI-H522) | GI50 (MDA-N) | GI50 (PC-3) | GI50 (ACHN) | GI50 (HL-60) | GI50 (MDA-MB-231) | GI50 (UACC-62) | GI50 (SNB-19) | GI50 (HOP-62) | GI50 (OVCAR-4) |
| --- | --- | --- | --- | --- | --- | --- | --- | --- | --- | --- | --- | --- | --- | --- | --- | --- | --- | --- | --- | --- |
| Cc1c(/C=N/NC(=S)N2CCCCC2)c(=O)n(-c2ccccc2)n1C | 43.9 µM (inactive) | 55.3 µM (inactive) | 68.1 µM (inactive) | > 100 µM (inactive) | 37.1 µM (inactive) | 61.9 µM (inactive) | 39.3 µM (inactive) | 43.8 µM (inactive) | 23.2 µM (inactive) | > 100 µM (inactive) | 39.1 µM (inactive) | > 100 µM (inactive) | > 100 µM (inactive) | 32.4 µM (inactive) | 14 µM (inactive) | > 100 µM (inactive) | > 100 µM (inactive) | 71.4 µM (inactive) | 88.9 µM (inactive) | – |
| Cc1cc2c(cc1C(=O)c1ccc(N)cc1)OCO2 | 20.1 µM (inactive) | 39.6 µM (inactive) | 24.5 µM (inactive) | 33.2 µM (inactive) | 33.7 µM (inactive) | 29.4 µM (inactive) | 48 µM (inactive) | 31 µM (inactive) | 39.1 µM (inactive) | – | 19.1 µM (inactive) | 12.4 µM (inactive) | 43.6 µM (inactive) | > 100 µM (inactive) | 49.9 µM (inactive) | 34.1 µM (inactive) | 31 µM (inactive) | 57.7 µM (inactive) | 58.7 µM (inactive) | – |
| CN(C)N1C(=C(C#N)C#N)C(c2ccccc2)CC1C#N (stereo unspecified) | > 100 µM (inactive) | > 100 µM (inactive) | > 100 µM (inactive) | > 100 µM (inactive) | – | > 100 µM (inactive) | > 100 µM (inactive) | > 100 µM (inactive) | > 100 µM (inactive) | > 100 µM (inactive) | > 100 µM (inactive) | > 100 µM (inactive) | > 100 µM (inactive) | > 100 µM (inactive) | > 100 µM (inactive) | > 100 µM (inactive) | > 100 µM (inactive) | > 100 µM (inactive) | > 100 µM (inactive) | – |
| C=C1C(=O)O[C@H]2/C=C(/C)C3=CC(=O)[C@@](C)(C[C@@H](OC(=O)/C(C)=C\C)C12)O3 (stereo partly specified) | 0.36 µM (active) | 4.05 µM (inactive) | 12.2 µM (inactive) | 0.703 µM (active) | 2.35 µM (inactive) | 1.85 µM (inactive) | 6.05 µM (inactive) | – | 0.0953 µM (active) | 2.59 µM (inactive) | 0.138 µM (active) | 0.684 µM (active) | 2.48 µM (inactive) | 0.232 µM (active) | < 0.0451 µM (active) | 3.05 µM (inactive) | 0.891 µM (active) | – | 9.4 µM (inactive) | 3.95 µM (inactive) |
| COc1cc2c(cc1O)CC[n+]1cc3c(OC)c(OC)ccc3cc1-2 | > 100 µM (inactive) | > 100 µM (inactive) | > 100 µM (inactive) | 87.7 µM (inactive) | > 100 µM (inactive) | > 100 µM (inactive) | > 100 µM (inactive) | > 100 µM (inactive) | > 100 µM (inactive) | > 100 µM (inactive) | > 100 µM (inactive) | > 100 µM (inactive) | > 100 µM (inactive) | > 100 µM (inactive) | > 100 µM (inactive) | > 100 µM (inactive) | > 100 µM (inactive) | 60.1 µM (inactive) | – | > 100 µM (inactive) |
| CC1=[N+](C)CCCN1C | > 100 µM (inactive) | > 100 µM (inactive) | > 100 µM (inactive) | > 100 µM (inactive) | > 100 µM (inactive) | > 100 µM (inactive) | > 100 µM (inactive) | > 100 µM (inactive) | > 100 µM (inactive) | > 100 µM (inactive) | > 100 µM (inactive) | > 100 µM (inactive) | > 100 µM (inactive) | > 100 µM (inactive) | > 100 µM (inactive) | > 100 µM (inactive) | – | > 100 µM (inactive) | > 100 µM (inactive) | > 100 µM (inactive) |
